Assay results taken from patent publication US6875571B2, “NF-AT polypeptides and polynucleotides and screening methods for immunosuppressive agents” (The Board of Trustees of the Leland Stanford Junior …, priority 1991, dated 2005).

What was measured:
[1] = tested on: NF-ATc; test: Western blot mobility of epitope tagged NF-ATc expressed in Jurkat cells; assay type: cell-based, human; conditions: stimulated 2 hrs, whole cell lysates
Procedure: Whole cell lysates were analyzed by western blotting as in FIG. 13.
The cDNA shown in FIG. 12 was fused to the Hemophilus influenza hemaglutinin (HA) 12 amino acid epitope tag in the determined reading frame and operably linked to the SRα promoter in the vector pBJ5 (Lin et al, 1990, Science 249:677-679). The resultant construct was transiently transfected by electroporation into Jurkat human T lymphocytes, and into Cos fibroblast cells. Expression of the epitope-tagged NF-ATc protein was determined by Western blotting of whole cell extracts prepared from the transfected cells, using an antibody (12CA5, Berkeley Antibody Co., CA) that detects the HA epitope.
Post-translational modification of NF-ATc was investigated in cells treated with agents that activate PKC or increase intracellular Ca++. […] Whole cell lysates were analyzed by western blotting as in FIG. 13. […] This is consistent with a dephosphorylation event, possibly by direct action of calcineurin (Clipstone and Crabtree (1992) Nature 357: 695-697), however, any of a large number of processes could produce the observed mobility changes. There is evidence that NF-ATp is a substrate for calcineurin, however, the mobility shifts produced by phosphatase treatment of NF-ATp or NF-ATc are far greater than those observed in FIG. 19. These observations indicate that NF-ATc is not a direct substrate of calcineurin.

[2] = tested on: nuclear component of NF-AT; test: Reconstitution of NF-AT binding: synthesis of the nuclear component; assay type: cell-based, human; conditions: PMA/ionomycin-stimulated cells
Procedure: (§1) NFATZ Jurkat cells and JK12/90.1 cells (a gift from N. Shastri) were stimulated for 2 hours with 20 ng/ml PMA and 2 μM ionomycin. […] Nuclear extracts were prepared as described previously with modifications. Cytoplasmic extracts were made from the same cells as the nuclear extracts. Following lysis of the cells with buffer A [10 mM Hepes (pH 7.8), 15 mM Kcl, 2 mM MgCl2, 1 mM DTT, 0.1 mM EDTA, 0.1 mM PMSF] plus 0.05% NP-40, and pelleting of the nuclei, the cytoplasmic fraction was removed and stabilized with 10% (vol/vol) glycerol and 1/10 volume of buffer B [0.3 M Hepes (pH 7.8), 1.4 M Kcl, and 30 mM MgCl2]. The cytoplasmic extract was centrifuged at 200,000 g for 15 minutes. An equal volume of 3 M (NH4)2SO4 (pH 7.9) was added to the supernatant, and precipitated proteins were pelleted at 100,000 g for 10 minutes. The pelleted cytoplasmic proteins were resuspended in buffer C [50 mM Hepes (pH 7.8), 50 mM KCl, 1 mM DTT, 0.1 mM EDTA, 0.1 mM PMSF, 10% (vol/vol) glycerol] and desalted by passage over a P6DG column (BioRad). Protein concentrations were determined using a BioRad protein assay kit. To assess the completeness of the nuclear and cytoplasmic fractionation, we assayed for Oct-1 (a constitutive nuclear located DNA binding protein) binding activity and β-galactosidase (cytoplasmic localized) enzyme activity. […]

[3] = tested on: NF-AT; test: In vitro transcription directed by multimerized NF-AT binding sites (G-less) by nuclear extracts of treated Jurkat cells; assay type: cell-based, human; conditions: nuclear extracts of stimulated/FK506-treated cells, 10 ng/ml
Procedure: The effect of FK506 on the ability of NF-AT to direct transcription was tested by preparing nuclear extracts from stimulated or stimulated/FK506-treated cells and testing their ability to transcribe a G-less cassette in which transcription was dependent upon three NF-AT sites located within a synthetic promoter.
Promoter constructs, nuclear extracts and transcription reactions were prepared as described. NFATZ Jurkat cells, derived from a human T cell leukemia, were stimulated with […] PMA (Sigma), 2 μM ionomycin (Calbiochem) for 2 hours. FK506 was used at 10 ng/ml and added five minutes prior to the addition of PMA and ionomycin. […] Transcription was quantitated using a radioanalytic imaging system (AMBIS). […]
In general, transcription reactions (20 μl) contained 40 μg/ml of circular DNA template [400 ng of the test construct, 40 ng of the AdMLP G-less construct, and 360 ng of poly dI-dC (Pharmacia)] and between 3-5 mg/ml nuclear protein extract in a buffer containing 25 mM Hepes (pH 7.6), 50 mM KCl, 6 mM MgCl2, 0.6 mM each of ATP and CTP, 7 μM UTP, 7 μCi [a-^32P] […] The pellets were rinsed with 70% ethanol, air dried, and resuspended in 10 μl of loading dye (90% formamide, 0.01% xylene cyanol, and 0.01% bromophenol blue in 1×TBE.) The transcripts were analyzed on 6% denaturing polyacrylamide gels. […]

[4] = tested on: NF-AT; test: Gel mobility shift assay of NF-AT DNA binding activity in extracts of treated Jurkat cells; assay type: cell-based, human
Procedure: Nuclear extracts were made according to the procedures of Ohlsson and Edlund (Cell 45:35 (1986)). Briefly, nuclei were extracted with 0.3 M (NH4)2SO4 and the fraction that contained the nuclear proteins was precipitated with 0.2 g/ml (NH4)2SO4 and dialyzed for 4 h. at 4° C. The NF-AT binding site of the IL-2 enhancer (−290 and −263) was used as a probe for binding activity. The binding experiment was carried out essentially as described in Shaw, J. P. Science 241:202-205 (1988)).
NFATZ Jurkat cells were pretreated with 100 μM anisoymycin (Sigma), a protein synthesis inhibitor, for 30 minutes before stimulating the cells. Conditions for activating the cells and preparing nuclear and cytoplasmic extracts are described in Example 3.
as §1

[5] = tested on: NFATZ Jurkat cells and JK12/90.1 cells; test: Toxic effects on the stimulated cells; assay type: cell-based; conditions: FK506 100 ng/ml or CsA 500 ng/ml, five minutes prior to PMA and ionomycin, 2 hours
[6] = tested on: IL-2 promoter; test: IL-2 enhancer/promoter luciferase reporter co-transfected with NF-ATc expression vector in Cos cells; assay type: cell-based; conditions: overexpression in Cos cells
Procedure: (§2) The NF-ATc cDNA was operably linked to a portion of the SV40 early gene promoter and the mV transcription regulatory regions in the pBJ vector. This expression vector was co-tranfected into Jurkat and Cos cells with either a) three copies of NF-AT binding site linked to and directing transcription of luciferase (results shown in FIGS. 14A and 14B) the entire IL-2 enhancer/promoter directing transcription of luciferase (results shown in FIG. 14B). Cytosolic extracts were prepared and luciferase assays carried out by standard procedures (de Wet et al, 1987, Mol. Cell. Biol. 7:724-[…]).

[7] = tested on: NF-AT binding site; test: NF-AT luciferase reporter co-transfected with NF-ATc expression vector in Cos and Jurkat cells; assay type: cell-based; conditions: overexpression in Cos cells and Jurkat cells
Procedure: as §2

CCCCCCCCCCCCCC(=O)O[C@@H]1[C@@H](C)[C@@]2(O)[C@@H](C=C(CO)C[C@]3(O)C(=O)C(C)=C[C@@H]23)[C@@H]2C(C)(C)[C@]12OC(C)=O [PMA, phorbol myristate acetate]
mobility of NF-ATc versus non-treated cells [1]: slower migrating

C[C@H](CCC(=O)O)C[C@H](C)C[C@H](C)C(=O)/C=C(\O)[C@H](C)C[C@H](C)C/C=C/[C@@H](C)[C@@H](O)[C@@H](C)[C@@H](O)C[C@@H]1CC[C@@](C)([C@H]2CC[C@@](C)([C@@H](C)O)O2)O1 [ionomycin]
mobility of NF-ATc versus non-treated cells [1]: migrates faster

C=CC[C@@H]1/C=C(\C)C[C@H](C)C[C@H](OC)[C@H]2O[C@@](O)(C(=O)C(=O)N3CCCC[C@H]3C(=O)O[C@H](/C(C)=C/[C@@H]3CC[C@@H](O)[C@H](OC)C3)[C@H](C)[C@@H](O)CC1=O)[C@H](C)C[C@@H]2OC [FK506]
synthesis of the nuclear component of NF-AT [2]: did not inhibit
reduction of in vitro transcription directed by multimerized NF-AT binding sites [3]: 2.5 fold
reduction of NF-AT DNA-binding activity in the extracts ([4]; nuclear extracts of stimulated/FK506-treated cells, 10 ng/ml): 50 to 80%
toxic effects to the cells [5]: without any toxic effects

COc1ccc(C[C@H]2NC[C@H](O)[C@H]2OC(C)=O)cc1 [anisomycin]
appearance of the NF-AT complex in activated T cells ([4]; NFATZ Jurkat cells pretreated with 100 μM for 30 minutes before stimulation): completely blocked
ability of cytoplasmic extracts from treated cells to reconstitute the NF-AT complex ([4]; cytoplasmic extracts of cells grown with 100 μM protein synthesis inhibitor): able to reconstitute

B1: NF-ATc: human cytosolic NF-AT subunit, protein of 716 amino acids (SEQ ID NO: 38), expressed from cDNA (protein)
chain: MPSTSFPVPSKFPLGPAAAVFGRGETLGPAPRAGGTMKSAEEEHYGYASSNVSPALPLPTAHSTLPAPCHNLQTSTPGIIPPADHPSGYGAALDGCPAGYFLSSGHTRPDGAPALESPRIEITSCLGLYHNNNQFFHDVEVEDVLPSSKRSPSTATLSLPSLEAYRDPSCLSPASSLSSRSCNSEASSYESNYSYPYASPQTSPWQSPCVSPKTTDPEEGFPRGLGACTLLGSPQHSPSTSPRASVTEESWLGARSSRPASPCNKRKYSLNGRQPPYSPHHSPTPSPHGSPRVSVTDDSWLGNTTQYTSSAIVAAINALTTDSSLDLGDGVPVKSRKTTLEQPPSVALKVEPVGEDLGSPPPPADFAPEDYSSFQHIRKGGFCDQYLAVPQHPYQWAKPKPLSPTSYMSPTLPALDWQLPSHSGPYELRIEVQPKSHHRAHYETEGSRGAVKASAGGHPIVQLHGYLENEPLMLQLFIGTADDRLLRPHAFYQVHRITGKTVSTTSHEAILSNTKVLEIPLLPENSMRAVIDCACILKLRNSDIELRKGETDIGRKNTRVRLVFRVHVPQPSGRTLSLQVASNPIECSQRSAQELPLVEKQSTDSYPVVGGKKMVLSGHNFLQDSKVIFVEKAPDGHHVWEMEAKTDRDLCKPNSLVVEIPPFRNQRITSPVHVSFYVCNGKRKRSQYQRFTYLPANGNAIFLTVSREHERVGCFF
modifications: human
activation of the IL-2 promoter [6]: activates
enhancement of NF-AT-dependent transcription [7]: 50-1000 fold
